Values quoted from earlier work in US6653500B2, “Method for the manufacture of Anagrelide” (Shire US Inc., priority 2000, dated 2003).
Where two headings read alike, the source gives them in different places.

Key:
[1] = monkeys, radiolabeled base
[2] = humans, radiolabeled base
[3] = solid

- absorption into blood plasma [1]: complete absorption
- absorption into blood plasma [2]: complete absorption
- solubility in most organic solvents: low
- aqueous solubility [3]: low
SMILES: O=C1CN2Cc3c(ccc(Cl)c3Cl)N=C2N1 [compound III, 6,7-dichloro-1,5-dihydroimidazo[2,1-b]quinazolin-2(3H)-one]
